Experimental data reported in patent publication US11999727B2 (Tango Therapeutics, Inc., priority 2020, dated 2024).

What was measured:
PRMT5 [1] = biological target: T1, PRMT5 (Homo sapiens, UniProt O14744); experiment: PRMT5 biochemical IC50 assay with SAM as cofactor; settings: PRMT5, SAM as cofactor; read-out: SAM IC50
T1 construct: purchased Viva (custom protein)

PRMT5 [2] = biological target: T1, PRMT5; experiment: PRMT5 biochemical IC50 assay with no cofactor; settings: PRMT5, no cofactor
Excerpt: Table 1 indicates IC50 values (μM) against PRMT5 for exemplary compounds in the presence of SAM as cofactor, with no cofactor, and with MTA as cofactor, respectively (columns 4-6). […] Ki values can be calculated from the IC50 values as described in the Examples section. As detailed in the Examples section, for the assay performed in the presence of SAM, IC50=Ki×1.5 (Ki=IC50/1.5).

PRMT5 [3] = biological target: T1, PRMT5; experiment: PRMT5 biochemical IC50 assay with MTA as cofactor; settings: PRMT5, MTA as cofactor; read-out: MTA IC50
[4] = test system: HAP1 MTAP-intact cell line; experiment: SDMA in-cell western assay, HAP1 MTAP-intact; format: cell-based; settings: Homo sapiens, HAP1, SDMA in-cell western, HAP1 MTAP-intact; read-out: MTAP HAP1 intact IC50
Summary of the method: (§1)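 Compounds were tested in HAP1 cells differing only in MTAP status (endogenous expression versus null). Cellular SDMA levels were then measured by in-cell western, giving an IC50 in each background.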

[5] = test system: HAP1 MTAP-deleted cell line; experiment: SDMA in-cell western assay, HAP1 MTAP-deleted; format: cell-based; settings: for IC50: Homo sapiens, HAP1, SDMA in-cell western, HAP1 MTAP-deleted; for MTAP intact/deleted ratio: SDMA in-cell western
Summary of the method: as §1

[6] = test system: HAP1 MTAP-deleted cell line; experiment: Viability assay, MTAP-deleted cell line; format: cell-based; settings: Homo sapiens, read-out: HAP1 MTAP deleted viability
Excerpt: Table 1 additionally indicates IC50 values in a viability assay for the MTAP-deleted cell line (column 10), indicating the effect of treatment with compound on cell survival.

[7] = read-out: No Cofactor/ rel IC50
[8] = read-out: HAP 1 MTAP deleted IC50
[9] = IC50 ratio HAP1 MTAP-intact / HAP1 MTAP-deleted
[10] = HAP1, viability assay, MTAP-deleted cell line
[11] = HAP1, viability IC50, MTAP-deleted cell line
[12] = read-out: HAP1 MTAP deleted IC50
[13] = HAP1, viability assay, HAP1 MTAP-deleted

T1 sequence (O14744 whole entry): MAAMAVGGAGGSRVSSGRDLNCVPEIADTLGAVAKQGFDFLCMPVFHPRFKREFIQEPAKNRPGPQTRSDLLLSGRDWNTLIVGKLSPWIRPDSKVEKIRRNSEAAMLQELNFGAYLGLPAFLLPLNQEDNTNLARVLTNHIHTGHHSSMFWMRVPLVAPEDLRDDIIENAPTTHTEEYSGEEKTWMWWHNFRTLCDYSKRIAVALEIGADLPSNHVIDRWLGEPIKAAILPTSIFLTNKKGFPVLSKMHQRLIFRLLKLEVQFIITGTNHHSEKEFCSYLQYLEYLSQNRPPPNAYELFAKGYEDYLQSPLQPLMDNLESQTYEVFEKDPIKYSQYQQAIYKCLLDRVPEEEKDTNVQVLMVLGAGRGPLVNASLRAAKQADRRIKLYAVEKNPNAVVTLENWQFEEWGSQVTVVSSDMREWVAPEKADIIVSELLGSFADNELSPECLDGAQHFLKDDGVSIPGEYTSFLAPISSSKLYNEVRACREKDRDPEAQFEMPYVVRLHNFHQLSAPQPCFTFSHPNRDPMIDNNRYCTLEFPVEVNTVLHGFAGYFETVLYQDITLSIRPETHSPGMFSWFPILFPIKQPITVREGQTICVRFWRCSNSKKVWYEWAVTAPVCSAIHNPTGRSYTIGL
T1 sequence (Q9BQA1 whole entry partner): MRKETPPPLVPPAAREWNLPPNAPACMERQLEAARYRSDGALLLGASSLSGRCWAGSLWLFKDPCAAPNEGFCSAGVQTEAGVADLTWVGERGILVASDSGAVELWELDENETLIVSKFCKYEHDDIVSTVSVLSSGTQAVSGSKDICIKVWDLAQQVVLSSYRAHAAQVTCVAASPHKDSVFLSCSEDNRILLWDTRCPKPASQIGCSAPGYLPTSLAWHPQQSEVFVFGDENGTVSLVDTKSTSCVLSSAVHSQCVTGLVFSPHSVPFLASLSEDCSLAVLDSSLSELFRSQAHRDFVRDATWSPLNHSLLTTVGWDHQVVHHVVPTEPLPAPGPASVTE

| SMILES | IC50 (PRMT5 [1]) [nM] | IC50 (PRMT5 [2]; [7]) [nM] | IC50 (PRMT5 [3]) [nM] | IC50 [4] [nM] | IC50 [5, 8] [nM] | IC50 (PRMT5 [2]; read-out: No Cofactor/rel IC50) [nM] | IC50 [5, 12] [nM] | MTAP intact/deleted ratio [5, 9] | IC50 [6, 10] [µM] | IC50 [6, 11] [µM] | MTAP intact/deleted ratio ([5]; IC50 ratio HAP1 MTAP-intact vs HAP1 MTAP-deleted) | IC50 [6, 13] [µM] | IC50 ([6]; HAP1, viability, HAP1 MTAP-deleted cell line) [µM] |
| --- | --- | --- | --- | --- | --- | --- | --- | --- | --- | --- | --- | --- | --- |
| CC1CCC2CCCCC2N1C(=O)C(=O)Nc1cncc(C(N)=O)c1 (stereo not shown) [Compound 144, 5-[2-(2-Methyl-decahydroquinolin-1-yl)-2-oxoacetamido]pyridine-3-carboxamide] | 50 to 500 | 50 to 500 | < 50 | > 1000 | 100 to 1000 | – | – | A (an IC50 ratio greater than or equal to 10 fold) | > 10 | – | – | – | – |
| Cc1cc(NC(=O)C(=O)N2C[C@@H](C)CC[C@@H]2c2ccc(C(F)(F)F)nc2)cnc1N (single isomer, unassigned) [Compound 1012] | 50 to 500 | – | < 50 | 100 to 1000 | 100 to 1000 | 50 to 500 | – | C (an IC50 ratio of less than 3 fold) | 1 to 10 | – | – | – | – |
| CCc1cc(NC(=O)C(=O)N2C[C@@H](C)CC[C@@H]2c2ccc3nn([C@H]4CCN(C)C4)cc3c2)cnc1N (racemic) [Compound 1091, N-(6-Amino-5-ethyl-3-pyridyl)-2-oxo-2-[rac-(2R,5S)-5-methyl-2-[2-[rac-(3S)-1-methylpyrrolidin-3-yl]indazol-5-yl]-1-piperidyl]acetamide] | 50 to 500 | – | < 50 | 100 to 1000 | – | < 50 | < 100 | – | < 1 | – | A (an IC50 ratio greater than or equal to 10 fold) | – | – |
| Cc1cc(NC(=O)C(=O)N2CCCCC2c2cccc3c2CC(=O)N3)cnc1N (stereo not shown) [Compound 116, N-(6-Amino-5-methyl-3-pyridyl)-2-oxo-2-[2-(2-oxoindolin-4-yl)-1-piperidyl]acetamide] | 50 to 500 | > 500 | 50 to 500 | > 1000 | 100 to 1000 | – | – | A (an IC50 ratio greater than or equal to 10 fold) | > 10 | – | – | – | – |
| Cc1cc(NC(=O)C(=O)N2C[C@H](C)CC[C@H]2c2cnc3scnc3c2)cnc1N (racemic) [Compound 685, N-(6-amino-5-methyl-3-pyridyl)-2-[(2S,5R)-5-methyl-2-thiazolo[5,4-b]pyridin-6-yl-1-piperidyl]-2-oxo-acetamide] | > 500 | – | 50 to 500 | > 1000 | 100 to 1000 | 50 to 500 | – | A (an IC50 ratio greater than or equal to 10 fold) | – | > 10 | – | – | – |
| NC(=O)c1cncc(NC(=O)C(=O)N2CCCCC2C2CCC2)c1 (stereo not shown) [Compound 103, 5-[[2-(2-cyclobutyl-1-piperidyl)-2-oxo-acetyl]amino]pyridine-3-carboxamide] | 50 to 500 | 50 to 500 | < 50 | > 1000 | 100 to 1000 | – | – | A (an IC50 ratio greater than or equal to 10 fold) | > 10 | – | – | – | – |
| Cc1cc(NC(=O)C(=O)N2C[C@@H](C)CC[C@@H]2c2cc3cn[nH]c3s2)cnc1N (single isomer, unassigned) [Compound 1392] | 50 to 500 | 50 to 500 | < 50 | 100 to 1000 | < 100 | – | – | A (an IC50 ratio greater than or equal to 10 fold) | – | – | – | – | < 1 |
| C[C@H]1CC[C@H](c2ccc(F)cc2)N(C(=O)C(=O)Nc2cnc(N)c(C3CC3)c2)C1 [Compound 989, N-(6-amino-5-cyclopropyl-3-pyridyl)-2-[(2R,5S)-2-(4-fluorophenyl)-5-methyl-1-piperidyl]-2-oxo-acetamide] | 50 to 500 | – | < 50 | > 1000 | < 100 | 50 to 500 | – | A (an IC50 ratio greater than or equal to 10 fold) | < 1 | – | – | – | – |

Continued, in another order:

| IC50 (PRMT5 [1]) [nM] | IC50 (PRMT5 [2]; [7]) [nM] | IC50 (PRMT5 [3]) [nM] | IC50 [4] [nM] | IC50 [5, 8] [nM] | IC50 (PRMT5 [2]; read-out: No Cofactor/rel IC50) [nM] | IC50 [5, 12] [nM] | SMILES | MTAP intact/deleted ratio [5, 9] | IC50 [6, 10] [µM] | IC50 [6, 11] [µM] | MTAP intact/deleted ratio ([5]; IC50 ratio HAP1 MTAP-intact vs HAP1 MTAP-deleted) | IC50 [6, 13] [µM] | IC50 ([6]; HAP1, viability, HAP1 MTAP-deleted cell line) [µM] |
| --- | --- | --- | --- | --- | --- | --- | --- | --- | --- | --- | --- | --- | --- |
| 50 to 500 | – | 50 to 500 | > 1000 | < 100 | 50 to 500 | – | C[C@@H]1CC[C@@H](c2ccc(O)c(C(C)(C)C)c2)N(C(=O)C(=O)Nc2cncc(C(N)=O)c2)C1 (racemic) [Compound 610, 5-[[2-[(2R,5S)-2-(3-tert-Butyl-4-hydroxy-phenyl)-5-methyl-1-piperidyl]-2-oxo-acetyl]amino]pyridine-3-carboxamide] | A (an IC50 ratio greater than or equal to 10 fold) | – | 1 to 10 | – | – | – |
| 50 to 500 | – | < 50 | > 1000 | – | 50 to 500 | < 100 | CNc1cccc([C@@H]2CC[C@@H](C)CN2C(=O)C(=O)Nc2cncc(C(N)=O)c2)c1 (single isomer, unassigned) [Compound 348] | A (an IC50 ratio greater than or equal to 10 fold) | 1 to 10 | – | – | – | – |
| 50 to 500 | – | 50 to 500 | > 1000 | – | 50 to 500 | > 1000 | CCc1ncc(NC(=O)C(=O)N2C[C@@H](C)CC[C@@H]2c2ccccc2)cc1C(N)=O (racemic) [Compound 747, 2-Ethyl-5-[[2-[(2S,5R)-5-methyl-2-phenyl-1-piperidyl]-2-oxo-acetyl]amino]pyridine-3-carboxamide] | B (an IC50 ratio greater than or equal to 3 fold but lower than 10 fold) | – | – | – | > 10 | – |
| > 500 | – | > 500 | > 1000 | – | > 500 | > 1000 | CCc1cc(NC(=O)C(=O)N2C[C@@H](C)CC[C@@H]2c2ccc(NC)nc2)cnc1N (single isomer, unassigned) [Compound 878] | C (an IC50 ratio of less than 3 fold) | – | – | – | > 10 | – |
| 50 to 500 | – | < 50 | > 1000 | – | 50 to 500 | < 100 | C[C@@H]1CC[C@@H](c2ccc3ccoc3c2)N(C(=O)C(=O)Nc2cncc(C(N)=O)c2)C1 (racemic) [Compound 241, rac-5-{2-[(2R,5S)-2-(1-Benzofuran-6-yl)-5-methylpiperidin-1-yl]-2-oxoacetamido}pyridine-3-carboxamide] | A (an IC50 ratio greater than or equal to 10 fold) | 1 to 10 | – | – | – | – |
| 50 to 500 | – | < 50 | 100 to 1000 | – | 50 to 500 | < 100 | Cc1cc(NC(=O)C(=O)N2[C@H](C)CCC[C@@H]2c2ccccc2)cnc1N (single isomer, unassigned) [Compound 415] | A (an IC50 ratio greater than or equal to 10 fold) | 1 to 10 | – | – | – | – |
| > 500 | – | 50 to 500 | > 1000 | – | > 500 | > 1000 | C[C@@H]1CC[C@@H](c2cncc(F)c2)N(C(=O)C(=O)Nc2cncc(C(N)=O)c2)C1 (racemic) [Compound 248, rac-5-{2-[(2R,5S)-2-(5-Fluoropyridin-3-yl)-5-methylpiperidin-1-yl]-2-oxoacetamido}pyridine-3-carboxamide] | B (an IC50 ratio greater than or equal to 3 fold but lower than 10 fold) | > 10 | – | – | – | – |
| > 500 | – | > 500 | > 1000 | – | > 500 | > 1000 | Cc1cccc([C@@H]2CC[C@@H](C)CN2C(=O)C(=O)Nc2cncc(C(N)=O)c2)c1 (single isomer, unassigned) [Compound 227] | C (an IC50 ratio of less than 3 fold) | > 10 | – | – | – | – |
